From patent publication US4345938A, “Herbicidal 2-haloacetanilides” (Monsanto Company, priority 1980, dated 1982)
Where two headings read alike, the source gives them in different places.

What was measured:
Assay type in all cases: in vivo
[1] = system: Eleocharis kuroguwai; assay: Field transplant rice test, applied 0 DAT, EK; details: 0 h, read-out: Percent Inhibition, EK; for inhibition at 375 g/ha: 0.375 Kg/Ha; for inhibition at 750 g/ha: 0.75 Kg/Ha; for inhibition at 1500 g/ha: 1.5 Kg/Ha; for inhibition at 3000 g/ha: 3.0 Kg/Ha
Procedure: (§1) The test data in Table III for all compounds was obtained under identical test conditions. The weeds used in the tests herein have the following abbreviations in the tables: Echinochloa crus-galli (EC), Monochloria vaginalis (MV), Cyperus Serotinus (CS), Eleocharis Kuroguwai (EK) and Sagittaria trifolia (ST).
(§2) In further comparative tests, a preferred compound of this invention (Example 1) was tested in the field with prior art Compounds A-D. These tests were conducted under conditions reflecting herbicide application times generally favorable to all herbicides in the test. The timing of application of herbicides to transplant rice is very important, whether, as in some instances, prior to transplanting the rice; in other instances, at the time of transplanting or else after transplanting. Application times are conventionally referred to as "days before transplant" (DBT) or "days after transplant" ("DAT"). The field test data in Table IV was obtained from a test in which the herbicides were applied at the time of transplant, i.e., "0 DAT", with observations being made weekly up to six weeks after transplant ("WAT") beginning at two weeks after transplant; for illustrative and representative purposes, only the early, middle and late period observations, i.e., 2 WAT, 4 WAT and 6 WAT, are shown in Table IV. The data in Table IV is for rates of application common to all herbicides in the test, i.e., from 3.0 kg/ha (2.67 lb/A) down to 0.375 kg/ha (0.34 lb/A). All herbicides were applied at their actual or expected use rates, i.e., as granules containing 2.5% by weight herbicide for the compound of Example 1, Compounds B, C and D and 5.0% by weight for Compound A.

[2] = system: Echinochloa crus-galli; assay: Field transplant rice test, applied 0 DAT, EC; details: 0 h, read-out: Percent Inhibition, EC; for inhibition at 375 g/ha: 0.375 Kg/Ha; for inhibition at 750 g/ha: 0.75 Kg/Ha; for inhibition at 1500 g/ha: 1.5 Kg/Ha; for inhibition at 3000 g/ha: 3.0 Kg/Ha
Procedure: as §1, §2

[3] = system: Downy Brome; assay: Pre-emergent herbicidal test, Downy Brome; note: ranges in brackets are in %
From the text: (§3) A good grade of top soil is placed in aluminum pans and compacted to a depth of three-eights to one-half inch from the top of the pan. On the top of the soil is placed a number of seeds or vegetative propagules of various plant species. The soil required to level fill the pans after seeding or adding vegetative propagules is weighted into a pan. The soil and a known amount of the active ingredient applied in a solvent or as a wettable powder suspension are thoroughly mixed, and used to cover the prepared pans. After treatment, the pans are moved into a greenhouse bench where they are watered by subirrigation as needed to give adequate moisture for germination and growth.
(§4) Approximately 2 weeks after seeding and treating, the plants were observed and the results recorded. The herbicidal rating was obtained by means of a fixed scale based on the percent injury of each plant species. The ratings are defined as follows: […]

[4] = system: Velvetleaf; assay: Pre-emergent herbicidal test, Velvetleaf; note: ranges in brackets are in %
From the text: as §3, §4

[5] = system: Rice; assay: Pre-emergent herbicidal test, Rice; details: Table II; note: ranges in brackets are in %
From the text: as §3, §4
The compounds were further tested by utilizing the above procedure on the following plant species: […]

[6] = system: Sagittaria trifolia; assay: Field transplant rice test, applied 9 DAT, ST; details: 216 h, read-out: Percent Inhibition, ST; for inhibition at 375 g/ha: 0.375 Kg/Ha; for inhibition at 750 g/ha: 0.75 Kg/Ha; for inhibition at 1500 g/ha: 1.5 Kg/Ha; for inhibition at 3000 g/ha: 3.0 Kg/Ha
Procedure: as §1, §2
In Table V are presented field data showing the relative performance of the compound of Example 1 and Compounds A-D applied 9 DAT, with observations being made weekly from 3 WAT to 7 WAT; again, for illustrative and representative purposes, only the early, middle and late period observations are reported in Table V, the herbicide rates and concentrations of active ingredients the same as is shown in Table IV.

[7] = system: Quackgrass; assay: Pre-emergent herbicidal test, Quackgrass; details: Table I; note: ranges in brackets are in %
From the text: as §3, §4

[8] = system: Sagittaria trifolia; assay: Greenhouse transplant rice test, ST
From the text: (§5) The test procedure used in this greenhouse test is as follows: Ray silt loam top soil containing about 0.05% by weight of krillium and sifted through a […] screen is fumigated about 5-10 days prior to use. Pots are then filled with said Ray silt loam soil to a level to allow for a 1 in. (2.54 cm) flooding depth. Rice plants (Bluebelle) of 2 to 3 weeks age are transplanted to the pots and bulbs or seeds of the test weeds also planted in the pots. The pots are then flooded and the test chemical applied to the surface of the flood water. The flood water is reduced to allow for germination of the Echinochloa crus-galli (barnyardgrass) seed and subsequently reflooded and maintained in that condition. Observations of percent inhibition using a scale of 0-100% are made about 3 weeks after transplant (WAT).
as §1

[9] = system: Echinochloa crus-galli; assay: Greenhouse transplant rice test, EC; details: about 3 WAT, read-out: Percent Inhibition, EC
From the text: as §5, §1

## CCCCOc1cccc(CC)c1N(C)C(=O)CCl [Example 1, N-methyl-2'-n-butoxy-6'-ethyl-2-chloroacetanilide]
[1]; 2 WAT
  inhibition at 375 g/ha: 73%
  inhibition at 750 g/ha: 82%
  inhibition at 1500 g/ha: 87%
  inhibition at 3000 g/ha: 97%
[1]; 4 WAT
  inhibition at 375 g/ha: 40%
  inhibition at 750 g/ha: 75%
  inhibition at 1500 g/ha: 83%
  inhibition at 3000 g/ha: 92%
[1]; 6 WAT
  inhibition at 375 g/ha: 3%
  inhibition at 750 g/ha: 50%
  inhibition at 1500 g/ha: 37%
  inhibition at 3000 g/ha: 65%
[2]; 2 WAT
  inhibition at 375 g/ha: 97%
  inhibition at 750 g/ha: 98%
  inhibition at 1500 g/ha: 100%
  inhibition at 3000 g/ha: 98%
[2]; 4 WAT
  inhibition at 375 g/ha: 100%
  inhibition at 750 g/ha: 100%
  inhibition at 1500 g/ha: 100%
  inhibition at 3000 g/ha: 100%
[2]; 6 WAT
  inhibition at 375 g/ha: 100%
  inhibition at 750 g/ha: 98%
  inhibition at 1500 g/ha: 100%
  inhibition at 3000 g/ha: 100%
[3]; Table I, 5.6 kg/h
  Rating, Downy Brome: 3 (75-100)
[3]; Table I, 11.2 kg/h
  Rating, Downy Brome: 3 (75-100)
[3]; Table II, 0.006 kg/h
  Rating, Downy Brome: 0 (0-24)
[3]; Table II, 0.01 kg/h
  Rating, Downy Brome: 1 (25-49)
[3]; Table II, 0.06 kg/h
  Rating, Downy Brome: 3 (75-100)
[3]; Table II, 0.28 kg/h
  Rating, Downy Brome: 3 (75-100)
[3]; Table II, 1.12 kg/h
  Rating, Downy Brome: 3 (75-100)
[3]; Table II, 5.6 kg/h
  Rating, Downy Brome: 3 (75-100)
[4]; Table I, 5.6 kg/h
  Rating, Velvetleaf: 2 (50-74)
[4]; Table I, 11.2 kg/h
  Rating, Velvetleaf: 2 (50-74)
[4]; Table II, 0.006 kg/h
  Rating, Velvetleaf: 0 (0-24)
[4]; Table II, 0.01 kg/h
  Rating, Velvetleaf: 0 (0-24)
[4]; Table II, 0.06 kg/h
  Rating, Velvetleaf: 0 (0-24)
[4]; Table II, 0.28 kg/h
  Rating, Velvetleaf: 0 (0-24)
[4]; Table II, 1.12 kg/h
  Rating, Velvetleaf: 1 (25-49)
[4]; Table II, 5.6 kg/h
  Rating, Velvetleaf: 1 (25-49)
[5]; 0.006 kg/h
  Rating, Rice: 1 (25-49)
[5]; 0.01 kg/h
  Rating, Rice: 1 (25-49)
[5]; 0.06 kg/h
  Rating, Rice: 1 (25-49)
[5]; 0.28 kg/h
  Rating, Rice: 3 (75-100)
[5]; 1.12 kg/h
  Rating, Rice: 3 (75-100)
[5]; 5.6 kg/h
  Rating, Rice: 3 (75-100)
[6]; 3 WAT
  inhibition at 375 g/ha: 50%
  inhibition at 750 g/ha: 43%
  inhibition at 1500 g/ha: 40%
  inhibition at 3000 g/ha: 72%
[6]; 5 WAT
  inhibition at 375 g/ha: 23%
  inhibition at 750 g/ha: 33%
  inhibition at 1500 g/ha: 13%
  inhibition at 3000 g/ha: 43%
[6]; 7 WAT
  inhibition at 375 g/ha: 18%
  inhibition at 750 g/ha: 13%
  inhibition at 1500 g/ha: 7%
  inhibition at 3000 g/ha: 38%
[7]; 5.6 kg/h
  Rating, Quackgrass: 3 (75-100)
[7]; 11.2 kg/h
  Rating, Quackgrass: 3 (75-100)
[8]; 0.56 kg/ha
  selective control of ST in rice: positive selective control
[8]; Sagittaria trifolia, 0.28 Kg/Ha, about 3 WAT, read-out: Percent Inhibition, ST
  inhibition at 280 g/ha: 75%
[8]; Sagittaria trifolia, 0.56 Kg/Ha, about 3 WAT, read-out: Percent Inhibition, ST
  inhibition at 560 g/ha: 85%
[8]; Sagittaria trifolia, 1.12 Kg/Ha, about 3 WAT, read-out: Percent Inhibition, ST
  inhibition at 1120 g/ha: 85%
[8]; Sagittaria trifolia, 2.24 Kg/Ha, about 3 WAT, read-out: Percent Inhibition, ST
  inhibition at 2240 g/ha: 90%
[9]; 0.28 Kg/Ha
  inhibition at 280 g/ha: 100%
[9]; 0.56 Kg/Ha
  inhibition at 560 g/ha: 100%
[9]; 1.12 Kg/Ha
  inhibition at 1120 g/ha: 100%
[9]; 2.24 Kg/Ha
  inhibition at 2240 g/ha: 100%
